According to patent US6559159B2, “Kappa opioid receptor ligands” (Research Triangle Institute, priority 2001, dated 2003):

Tests used:
mu opioid receptor [1] = molecular target: T1, mu opioid receptor (Homo sapiens, UniProt P35372); assay: Inhibition of DAMGO-stimulated [35S]GTPγS binding in cloned human opioid receptors; type: biochemical; parameters: expressed in transfected cells; settings: 50% attenuation of DAMGO (10 μM)-stimulated [35S]GTP-γ-S binding, ± SD, read-out: Apparent Functional Ki DAMGO
kappa opioid receptor [2] = molecular target: T2, kappa opioid receptor (Homo sapiens, UniProt P41145); assay: Radioligand competitive binding, [3H]U69,593; settings: for Ki: radioligand binding, kappa, ± SD; for delta/kappa selectivity ratio (binding) / mu/kappa selectivity ratio (binding): column head not printed in Table 1
delta opioid receptor [3] = molecular target: T3, delta opioid receptor (Homo sapiens, UniProt P41143); assay: Radioligand competitive binding, [3H]DADLE; settings: for Ki: delta, ± SD
kappa opioid receptor [4] = molecular target: T4, kappa opioid receptor (Cavia porcellus, UniProt P41144); assay: Inhibition of U69,593-stimulated [35S]GTPγS binding in guinea pig caudate; type: biochemical; settings: for Ki: 50% attenuation of U69,593 (10 μM)-stimulated [35S]GTP-γ-S binding, ± SD, read-out: Apparent Functional Ki U69,593; for δ/κ / μ/κ: ratio of apparent functional Ki
T4 construct: as measured in guinea pig caudate membranes; from tissue; host or cells: guinea pig caudate membranes

kappa opioid receptor [5] = molecular target: T2, kappa opioid receptor; assay: Inhibition of U69,593-stimulated [35S]GTPγS binding in cloned human opioid receptors; type: biochemical; parameters: expressed in transfected cells
mu opioid receptor [6] = molecular target: T1, mu opioid receptor; assay: Radioligand competitive binding, [3H]DAMGO; settings: for Ki: radioligand binding, mu, ± SD
mu opioid receptor [7] = molecular target: mu opioid receptor (Cavia porcellus, UniProt A0ACM8Q262); assay: Inhibition of DAMGO-stimulated [35S]GTPγS binding in guinea pig caudate; type: biochemical; settings: 50% attenuation of DAMGO (10 μM)-stimulated [35S]GTP-γ-S binding, ± SD, read-out: Apparent Functional Ki DAMGO
delta opioid receptor [8] = molecular target: T5, delta opioid receptor (Cavia porcellus, UniProt A0A286XTF2); assay: Inhibition of SNC-80-stimulated [35S]GTPγS binding in guinea pig caudate; type: biochemical; settings: 50% attenuation of SNC80 (10 μM)-stimulated [35S]GTP-γ-S binding, ± SD, read-out: Apparent Functional Ki SNC-80
T5 construct: as measured in guinea pig caudate membranes; from tissue; host or cells: guinea pig caudate membranes

delta opioid receptor [9] = molecular target: T3, delta opioid receptor; assay: Inhibition of SNC-80-stimulated [35S]GTPγS binding in cloned human opioid receptors; type: biochemical; parameters: expressed in transfected cells; settings: 50% attenuation of SNC80 (10 μM)-stimulated [35S]GTP-γ-S binding, ± SD, read-out: Apparent Functional Ki SNC-80
[10] = ratio of apparent functional Ki, cloned human receptors

C[C@@H]1CN(CCCc2ccccc2)[C@H]2C[C@H](NC(=O)CCN3CCCCC3)C[C@]1(c1cccc(O)c1)C2 [Compound 12, (−)-N-[(1R,4S,5S, 7R)-5-(3-hydroxy)phenyl-4-methyl-2-(3-phenylpropyl)-2-azabicyclo[3.3.1]non-7-yl]-3-(1-piperidinyl)propanamide]
Ki (mu opioid receptor [1]): 35.8 ± 6.8 nM
Ki (kappa opioid receptor [2]): 4.3 nM
delta/kappa selectivity profile (binding, text) (kappa opioid receptor [2]; ratio of binding Ki): > 790 fold
delta/kappa selectivity ratio (binding) (kappa opioid receptor [2]; ratio of binding Ki): >790
mu/kappa selectivity ratio (binding) (kappa opioid receptor [2]; ratio of binding Ki): 34
Ki (delta opioid receptor [3]): > 3400 nM
affinity for the delta receptor (in words) (delta opioid receptor [3]; within the testing parameters): no affinity
Ki (kappa opioid receptor [4]): 0.48 ± 0.06 nM
δ/κ (kappa opioid receptor [4]): >625
μ/κ (kappa opioid receptor [4]): 70
Ki (kappa opioid receptor [5]; cloned human opioid receptors, 50% attenuation of U69,593 (10 μM)-stimulated [35S]GTP-γ-S binding, ± SD, read-out: Apparent Functional Ki U69,593): 0.56 ± 0.08 nM
δ/κ (kappa opioid receptor [5]; [10]): >178
μ/κ (kappa opioid receptor [5]; [10]): 64
affinity for the mu receptor lower than compound 10 (mu opioid receptor [6]; binding Ki of 12 relative to 10): ~50 fold
Ki (mu opioid receptor [6]): 147 nM
Ki (mu opioid receptor [7]): 33.6 ± 10.4 nM
Ki (delta opioid receptor [8]): > 300 nM
Ki (delta opioid receptor [9]): > 100 nM

C[C@@H]1CN(CCCc2ccccc2)[C@H]2C[C@H](NC(=O)CCCN(C)C)C[C@]1(c1cccc(O)c1)C2 [Compound 13, 4-(dimethylamino)-N-[(1R,4S,5S,7R)-5-(3-hydroxyphenyl)-4-methyl-2-(3-phenylpropyl)-2-azabicyclo[3.3.1]non-7-yl]butanamide]
Ki (kappa opioid receptor [2]): 11.9 ± 0.65 nM
delta/kappa selectivity ratio (binding) (kappa opioid receptor [2]; ratio of binding Ki): 122
mu/kappa selectivity ratio (binding) (kappa opioid receptor [2]; ratio of binding Ki): 5
Ki (delta opioid receptor [3]): 1460 ± 113 nM
Ki (mu opioid receptor [6]): 57 ± 5.4 nM

CC1C2CCCC1(c1cccc(O)c1)CCN2CCc1ccccc1 (stereo not drawn) [Compound 10, N-phenethyl-9β-methyl-5-(3-hydroxyphenyl)morphan, reference compound]
Ki (kappa opioid receptor [2]): 14.5 ± 0.99 nM
delta/kappa selectivity ratio (binding) (kappa opioid receptor [2]; ratio of binding Ki): 19
mu/kappa selectivity ratio (binding) (kappa opioid receptor [2]; ratio of binding Ki): 0.21
Ki (delta opioid receptor [3]): 272 ± 30 nM
Ki (kappa opioid receptor [4]): 1.34 ± 0.084 nM
δ/κ (kappa opioid receptor [4]): 9.4
μ/κ (kappa opioid receptor [4]): 0.25
Ki (mu opioid receptor [6]): 3.11 nM
Ki (mu opioid receptor [7]): 0.338 ± 0.028 nM
Ki (delta opioid receptor [8]): 12.6 ± 1.01 nM

Oc1ccc2c3c1O[C@H]1c4[nH]c5c(c4C[C@@]4(O)[C@@H](C2)N(CC2CC2)CC[C@]314)C[C@@]1(O)[C@H]2Cc3ccc(O)c4c3[C@@]1(CCN2CC1CC1)[C@H]5O4 [6, nor-BNI, norbinaltorphimine]
Ki (delta opioid receptor [8]): 86 ± 7.2 nM
